Earlier results in US10149828B2, “Oxybutynin transdermal therapeutic system combination” (priority 2015, dated 2018).

How the values were obtained:
[1] = compared to placebo over six months; pivotal clinical trials
[2] = open-label, titrated to 6 mg twice daily, 26 weeks
[3] = administered orally to mice
[4] = [14C] oxybutynin, transdermal, rats

CCN(C)C(=O)Oc1cccc([C@H](C)N(C)C)c1 [rivastigmine, (S)-N-Ethyl-N-methyl-3-[1-(dimethylamino)ethyl]-phenyl carbamate]
improvement on the 30-point Mini-Mental Status Examination (MMSE) [1]: 1-1.5 point | improvement on the 70-point cognitive subscale of the Alzheimer's Disease Assessment Scale (ADAS-Cog) [1]: ~2.8 point | cognitive functions in PD patients with dementia [2]: may improve | motor function in PD patients with dementia [2]: no worsening

CCN(CC)CC#CCOC(=O)C(O)(c1ccccc1)C1CCCCC1 (stereo not drawn) [oxybutynin, 4-diethylaminobut-2-ynyl 2-cyclohexyl-2-hydroxy-2-phenylethanoate]
crossing of the Blood-Brain-Barrier [3]: has been shown to cross the Blood-Brain-Barrier | radiolabel in the brain [4]: presence of radiolabel in the brain
